One data set deals with human 5-HT6 receptor (Homo sapiens (Human), UniProt P50406). Put plainly: radioligand binding assay (SPA format), [N-methyl-3H]-LSD. The note with it: read-out: human 5HT6 Ki, human 5-HT6 receptor membranes, 10 nM [3H]-LSD.

Among the data in US8575186B2, “Epiminocycloalkyl[b] indole derivatives as serotonin sub-type 6 (5-HT6) modulators and uses thereof” (Albany Molecular Research, Inc., priority 2009, dated 2013) are melting point and Ki values, retold here.

Where a name gives a salt, the structure may show the parent alone. Read-outs that look alike come from different tables or passages of the source.

Broadly, the melting point is the temperature, or range, at which the solid turns liquid. Broadly, the Ki is a dissociation constant, usually derived from enzyme kinetics or from competition with a known ligand.

Sequence of human 5-HT6 receptor (P50406 whole entry): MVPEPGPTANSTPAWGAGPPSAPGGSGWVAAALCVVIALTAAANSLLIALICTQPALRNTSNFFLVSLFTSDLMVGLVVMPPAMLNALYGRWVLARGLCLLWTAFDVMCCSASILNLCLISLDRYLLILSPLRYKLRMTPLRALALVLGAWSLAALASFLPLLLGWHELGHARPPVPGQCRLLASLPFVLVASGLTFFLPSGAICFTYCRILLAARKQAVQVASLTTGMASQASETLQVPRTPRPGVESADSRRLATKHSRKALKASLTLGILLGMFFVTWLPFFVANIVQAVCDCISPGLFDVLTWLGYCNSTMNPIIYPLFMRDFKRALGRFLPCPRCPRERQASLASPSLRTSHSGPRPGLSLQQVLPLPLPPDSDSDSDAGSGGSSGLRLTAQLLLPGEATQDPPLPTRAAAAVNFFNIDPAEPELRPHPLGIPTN

Turning to `CNc1cccc(S(=O)(=O)c2ccc3c(c2)c2c(n3C)CC3CCC2N3)c1.Cl` (centres unmarked) [Example 46, 2-[(3-N-Methylamino)phenyl]sulfonyl-5-methyl-5,6,7,8,9,10-hexahydro-7,10-epiminocyclohepta[b]indole hydrochloride], the melting point was 208 to 212 °C (dec.). At human 5-HT6 receptor, the Ki was 6.5 nM. For `Cl.Cn1c2c(c3cc(S(=O)(=O)c4cccc(N)c4)ccc31)C1CCC(C2)N1` (centres unmarked) [Example 44, 2-(3-Aminophenyl)sulfonyl-5-methyl-5,6,7,8,9,10-hexahydro-7,10-epiminocyclohepta[b]indole hydrochloride] the same measures were 220 to 222 °C and 6.3 nM. For `CC(C)Nc1cccc(S(=O)(=O)c2ccc3c(c2)c2c(n3C)CC3CCC2N3)c1.Cl` (centres unmarked) [Example 47, 2-[(3-N-Isopropylamino)phenyl]sulfonyl-5-methyl-5,6,7,8,9,10-hexahydro-7,10-epiminocyclohepta[b]indole hydrochloride] the same measures were 208 to 212 °C (dec.) and 11 nM.

In turn, `Cl.Cn1c2c(c3cc(S(=O)(=O)c4cncc(F)c4)ccc31)C1CCC(C2)N1` (centres unmarked) [Example 59, 2-[3-(5-Fluoro)-pyridine]sulfonyl-5-methyl-5,6,7,8,9,10-hexahydro-7,10-epiminocyclohepta[b]indole hydrochloride] displayed a melting point of 212 to 215 °C. Further, at human 5-HT6 receptor, the Ki was 139 nM. For `Cl.Cn1c2c(c3cc(S(=O)(=O)c4ccc(O)cc4)ccc31)C1CCC(C2)N1` (centres unmarked) [Example 32, 2-(4-Hydroxyphenyl)sulfonyl-5-methyl-5,6,7,8,9,10-hexahydro-7,10-epiminocyclohepta[b]indole hydrochloride] the same measures were 210 to 212 °C and 11 nM.

With `CCOc1cc(S(=O)(=O)c2ccccc2)cc2c3c(n(C)c12)CC1CCC3N1.Cl` (centres unmarked) [Example 84, 2-Phenylsulfonyl-4-ethoxy-5-methyl-5,6,7,8,9,10-hexahydro-7,10-epiminocyclohepta[b]indole hydrochloride], the melting point was 182 to 184 °C. Further, the inhibition constant Ki at human 5-HT6 receptor (hydrochloride) was found to be 1 nM.

`CC(C)n1c2c(c3cc(S(=O)(=O)c4ccccc4)ccc31)C1CCC(C2)N1.Cl` (centres unmarked) [Example 87, 2-Phenylsulfonyl-5-isopropyl-5,6,7,8,9,10-hexahydro-7,10-epiminocyclohepta[b]indole hydrochloride] displayed a melting point of 260 to 265 °C. At human 5-HT6 receptor (hydrochloride), the Ki was 350 nM.

`Cl.Cn1c2c(c3cc(S(=O)(=O)c4cccc(F)c4)ccc31)C1CCC(C2)N1` (centres unmarked) [Example 35, 2-(3-Fluorophenyl)sulfonyl-5-methyl-5,6,7,8,9,10-hexahydro-7,10-epiminocyclohepta[b]indole hydrochloride] showed a melting point of 240 to 245 °C. The inhibition constant (Ki) at human 5-HT6 receptor was 4.2 nM. For `Cl.Cn1c2c(c3cc(S(=O)(=O)c4ccc(F)cc4)ccc31)C1CCC(C2)N1` (centres unmarked) [Example 28, 2-(4-Fluorophenyl)sulfonyl-5-methyl-5,6,7,8,9,10-hexahydro-7,10-epiminocyclohepta[b]indole hydrochloride] the same measures were 210 to 214 °C and 60 nM. For `Cl.Cn1c2c(c3cc(S(=O)(=O)c4ccccc4)cc(OCc4ccccc4)c31)C1CCC(C2)N1` (centres unmarked) [Example 86, 2-Phenylsulfonyl-4-benzyloxy-5-methyl-5,6,7,8,9,10-hexahydro-7,10-epiminocyclohepta[b]indole hydrochloride] the same measures were 178 to 180 °C and 14 nM. For `Cl.Cn1c2c(c3cc(S(=O)(=O)c4cccc(O)c4)ccc31)C1CCC(C2)N1` (centres unmarked) [Example 42, 2-(3-Hydroxyphenyl)sulfonyl-5-methyl-5,6,7,8,9,10-hexahydro-7,10-epiminocyclohepta[b]indole hydrochloride] the same measures were 208 to 212 °C and 11 nM. For the compound `Cl.Cn1c2c(c3cc(S(=O)(=O)c4cncc(Cl)c4)ccc31)C1CCC(C2)N1` (centres unmarked) [Example 58, 2-[3-(5-Chloro)-pyridine]sulfonyl-5-methyl-5,6,7,8,9,10-hexahydro-7,10-epiminocyclohepta[b]indole hydrochloride], the melting point was 202 to 205 °C (dec.). Further, at human 5-HT6 receptor, the Ki worked out at 44 nM.

As to `Cl.Cn1c2c(c3cc(S(=O)(=O)c4ccc(Cl)cc4)ccc31)C1CCC(C2)N1` (centres unmarked) [Example 51, 2-(4-Chlorophenyl)sulfonyl-5-methyl-5,6,7,8,9,10-hexahydro-7,10-epiminocyclohepta[b]indole hydrochloride], the melting point fell in the range of 310 to 320 °C. On human 5-HT6 receptor, the Ki was 37 nM.

In the case of `Cc1cc(S(=O)(=O)c2cccc(OC(F)(F)F)c2)cc2c3c(n(C)c12)CC1CCC3N1.Cl` (centres unmarked) [Example 76, 2-(3-Trifluoromethoxy-phenyl)sulfonyl-4,5-dimethyl-5,6,7,8,9,10-hexahydro-7,10-epiminocyclohepta[b]indole hydrochloride], the melting point is 220 to 222 °C. In addition, on human 5-HT6 receptor, the Ki turned out to be 6.9 nM.

With `COc1ccc(S(=O)(=O)c2ccc3c(c2)c2c(n3C)CC3CCC2N3)cc1.Cl` (centres unmarked) [Example 31, 2-(4-Methoxyphenyl)sulfonyl-5-methyl-5,6,7,8,9,10-hexahydro-7,10-epiminocyclohepta[b]indole hydrochloride], the melting point lay within 210 to 212 °C. The Ki on human 5-HT6 receptor was 44 nM. The like results for `Cl.Cn1c2c(c3cc(S(=O)(=O)c4cccc5ccccc45)ccc31)C1CCC(C2)N1` (centres unmarked) [Example 49, 2-(1-Napthyl)sulfonyl-5-methyl-5,6,7,8,9,10-hexahydro-7,10-epiminocyclohepta[b]indole hydrochloride] were, in that order, 229 to 231 °C and 1.4 nM. Consider `Cc1cc(S(=O)(=O)c2cncnc2)cc2c3c(n(C)c12)CC1CCC3N1.Cl` (centres unmarked) [Example 78, 2-(5-Pyrimidine)sulfonyl-4,5-dimethyl-5,6,7,8,9,10-hexahydro-7,10-epiminocyclohepta[b]indole], for which the melting point lay within 226 to 228 °C. Moreover, on human 5-HT6 receptor, the Ki turned out to be 794 nM. As for `COc1cccc(S(=O)(=O)c2ccc3c(c2)c2c(n3C)CC3CCC2N3)c1.Cl` (centres unmarked) [Example 41, 2-(3-Methoxyphenyl)sulfonyl-5-methyl-5,6,7,8,9,10-hexahydro-7,10-epiminocyclohepta[b]indole hydrochloride], the melting point was in the range of 186 to 190 °C. Also, the Ki at human 5-HT6 receptor came to 17 nM. In the case of `CCn1c2c(c3cc(S(=O)(=O)c4ccccc4)ccc31)C1CCC(C2)N1.Cl` (centres unmarked) [Example 90, 2-Phenylsulfonyl-5-ethyl-5,6,7,8,9,10-hexahydro-7,10-epiminocyclohepta[b]indole hydrochloride], the melting point was 200 to 204 °C (dec.). Also, the Ki at human 5-HT6 receptor was found to be 52 nM. The compound `Cl.O=S(=O)(c1ccccc1)c1ccc2c(c1)c1c(n2CCO)CC2CCC1N2` (centres unmarked) [Example 89, 2-Phenylsulfonyl-5-(2-hydroxy)ethyl-5,6,7,8,9,10-hexahydro-7,10-epiminocyclohepta[b]indole hydrochloride] gave a melting point of 185 to 190 °C. At human 5-HT6 receptor, the inhibitory constant (Ki) was found to be 432 nM.

As to `Cl.Cn1c2c(c3cc(S(=O)(=O)c4ccccc4)cc(Cl)c31)C1CCC(C2)N1` (centres unmarked) [Example 82, 2-Phenylsulfonyl-4-chloro-5-methyl-5,6,7,8,9,10-hexahydro-7,10-epiminocyclohepta[b]indole hydrochloride], the melting point was 258 to 264 °C (dec.). In addition, the Ki at human 5-HT6 receptor came to 22 nM.

Regarding `Cl.Cn1c2c(c3cc(S(=O)(=O)c4ccc(C#N)cc4)ccc31)C1CCC(C2)N1` (centres unmarked) [Example 30, 2-(4-Cyanophenyl)sulfonyl-5-methyl-5,6,7,8,9,10-hexahydro-7,10-epiminocyclohepta[b]indole hydrochloride], the melting point was in the range of 216 to 218 °C. In addition, the Ki at human 5-HT6 receptor (hydrochloride) was found to be 410 nM.

For `Cc1ccccc1S(=O)(=O)c1ccc2c(c1)c1c(n2C)CC2CCC1N2.Cl` (centres unmarked) [Example 52, 2-(2-Methylphenyl)sulfonyl-5-methyl-5,6,7,8,9,10-hexahydro-7,10-epiminocyclohepta[b]indole hydrochloride], the melting point lay within 186 to 188 °C. In addition, on human 5-HT6 receptor, the inhibition constant (Ki) amounted to 11 nM. The like results for `Cc1cccc(S(=O)(=O)c2ccc3c(c2)c2c(n3C)CC3CCC2N3)c1.Cl` (centres unmarked) [Example 37, 2-(3-Methylphenyl)sulfonyl-5-methyl-5,6,7,8,9,10-hexahydro-7,10-epiminocyclohepta[b]indole hydrochloride] were, in that order, 194 to 196 °C and 3.7 nM. `Cn1c2c(c3cc(S(=O)(=O)c4ccc(CN)cc4)ccc31)C1CCC(C2)N1` (centres unmarked) (as salt: hydrochloride) [Example 33, 2-(4-Aminomethylphenyl)sulfonyl-5-methyl-5,6,7,8,9,10-hexahydro-7,10-epiminocyclohepta[b]indole dihydrochloride] showed a melting point of 237 to 239 °C. Same read-out and setting: to `Cl.Cn1c2c(c3cc(S(=O)(=O)c4ccsc4)ccc31)C1CCC(C2)N1` (centres unmarked) [Example 56, 2-(3-Thienyl)sulfonyl-5-methyl-5,6,7,8,9,10-hexahydro-7,10-epiminocyclohepta[b]indole hydrochloride] belongs 208 to 212 °C (dec.); to `Cl.Cn1c2c(c3cc(S(=O)(=O)n4ccc5cc(F)ccc54)ccc31)C1CCC(C2)N1` (centres unmarked) [Example 63, 2-[1-(5-Fluoro)-indole]sulfonyl-5-methyl-5,6,7,8,9,10-hexahydro-7,10-epiminocyclohepta[b]indole hydrochloride], 218 to 220 °C. The same measure, in the same setting: under `Cc1cc(S(=O)(=O)n2ccc3ccccc32)cc2c3c(n(C)c12)CC1CCC3N1.Cl` (centres unmarked) [Example 79, 2-[1-Indolesulfonyl]-4,5-dimethyl-5,6,7,8,9,10-hexahydro-7,10-epiminocyclohepta[b]indole] stands 225 to 228 °C; under `Cc1cccc(S(=O)(=O)c2cc(C)c3c(c2)c2c(n3C)CC3CCC2N3)c1.Cl` (centres unmarked) [Example 74, 2-(3-Methyl-phenyl)sulfonyl-4,5-dimethyl-5,6,7,8,9,10-hexahydro-7,10-epiminocyclohepta[b]indole hydrochloride], 228 to 230 °C.
